According to patent US20250215012A1, “IKZF2 DEGRADERS AND USES THEREOF” (REGENTS OF THE UNIVERSITY OF MICHIGAN, priority 2022, published 2025):
Blank lines part the entries; values can stand above or below the compound they belong to.

Target: IKZF2 (Homo sapiens (Human), UniProt Q96SW2+Q9UKS7)
Test: IKZF2 HiBiT Assay (Jurkat-IKZF2-HiBiT cell line)
Format: cell-based
Settings: Jurkat-IKZF2-HiBiT cells, 24 hours; for Dmax: read-out: HiBit assay degradation analysis Dmax; for DC50: read-out: HiBit assay degradation analysis DC50
Procedure, shortened: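 Jurkat cells carrying HiBiT-tagged IKZF2 were exposed to serially diluted compound for 24 h at 37 °C. Remaining IKZF2 was measured by Nano-Glo HiBiT lytic luminescence after 10-20 min at room temperature. Signal was normalized to DMSO, and IC50 came from a four-parameter variable-slope fit.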

Sequence of IKZF2 (Q9UKS7 whole entry): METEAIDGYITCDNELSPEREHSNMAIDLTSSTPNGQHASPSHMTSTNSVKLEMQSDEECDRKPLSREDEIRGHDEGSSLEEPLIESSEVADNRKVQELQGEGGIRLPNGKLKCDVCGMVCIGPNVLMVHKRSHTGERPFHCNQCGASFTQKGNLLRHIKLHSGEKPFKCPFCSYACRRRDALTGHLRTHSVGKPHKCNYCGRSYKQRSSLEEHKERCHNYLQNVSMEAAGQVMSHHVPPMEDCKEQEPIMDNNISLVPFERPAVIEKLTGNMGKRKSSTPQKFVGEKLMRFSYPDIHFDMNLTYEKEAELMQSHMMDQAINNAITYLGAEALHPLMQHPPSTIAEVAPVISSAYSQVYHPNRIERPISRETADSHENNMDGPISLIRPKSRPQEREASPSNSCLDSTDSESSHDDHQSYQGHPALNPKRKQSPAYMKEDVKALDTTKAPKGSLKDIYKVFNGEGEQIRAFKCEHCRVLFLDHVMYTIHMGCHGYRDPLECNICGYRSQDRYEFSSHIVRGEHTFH
Sequence of IKZF2 (Q96SW2 whole entry): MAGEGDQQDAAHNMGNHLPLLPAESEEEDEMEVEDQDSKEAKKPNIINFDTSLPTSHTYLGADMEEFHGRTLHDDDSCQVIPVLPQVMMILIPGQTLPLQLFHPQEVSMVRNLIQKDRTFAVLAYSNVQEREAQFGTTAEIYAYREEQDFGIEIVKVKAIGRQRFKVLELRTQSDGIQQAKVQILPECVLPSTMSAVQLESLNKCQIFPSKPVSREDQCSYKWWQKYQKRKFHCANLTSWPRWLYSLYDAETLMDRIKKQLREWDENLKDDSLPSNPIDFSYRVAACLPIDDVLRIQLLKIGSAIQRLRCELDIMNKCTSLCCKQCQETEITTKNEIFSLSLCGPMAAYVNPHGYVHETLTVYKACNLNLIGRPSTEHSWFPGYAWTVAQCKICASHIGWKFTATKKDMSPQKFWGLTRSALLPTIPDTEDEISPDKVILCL
Sequence of IKZF2 (Q16531 whole entry partner): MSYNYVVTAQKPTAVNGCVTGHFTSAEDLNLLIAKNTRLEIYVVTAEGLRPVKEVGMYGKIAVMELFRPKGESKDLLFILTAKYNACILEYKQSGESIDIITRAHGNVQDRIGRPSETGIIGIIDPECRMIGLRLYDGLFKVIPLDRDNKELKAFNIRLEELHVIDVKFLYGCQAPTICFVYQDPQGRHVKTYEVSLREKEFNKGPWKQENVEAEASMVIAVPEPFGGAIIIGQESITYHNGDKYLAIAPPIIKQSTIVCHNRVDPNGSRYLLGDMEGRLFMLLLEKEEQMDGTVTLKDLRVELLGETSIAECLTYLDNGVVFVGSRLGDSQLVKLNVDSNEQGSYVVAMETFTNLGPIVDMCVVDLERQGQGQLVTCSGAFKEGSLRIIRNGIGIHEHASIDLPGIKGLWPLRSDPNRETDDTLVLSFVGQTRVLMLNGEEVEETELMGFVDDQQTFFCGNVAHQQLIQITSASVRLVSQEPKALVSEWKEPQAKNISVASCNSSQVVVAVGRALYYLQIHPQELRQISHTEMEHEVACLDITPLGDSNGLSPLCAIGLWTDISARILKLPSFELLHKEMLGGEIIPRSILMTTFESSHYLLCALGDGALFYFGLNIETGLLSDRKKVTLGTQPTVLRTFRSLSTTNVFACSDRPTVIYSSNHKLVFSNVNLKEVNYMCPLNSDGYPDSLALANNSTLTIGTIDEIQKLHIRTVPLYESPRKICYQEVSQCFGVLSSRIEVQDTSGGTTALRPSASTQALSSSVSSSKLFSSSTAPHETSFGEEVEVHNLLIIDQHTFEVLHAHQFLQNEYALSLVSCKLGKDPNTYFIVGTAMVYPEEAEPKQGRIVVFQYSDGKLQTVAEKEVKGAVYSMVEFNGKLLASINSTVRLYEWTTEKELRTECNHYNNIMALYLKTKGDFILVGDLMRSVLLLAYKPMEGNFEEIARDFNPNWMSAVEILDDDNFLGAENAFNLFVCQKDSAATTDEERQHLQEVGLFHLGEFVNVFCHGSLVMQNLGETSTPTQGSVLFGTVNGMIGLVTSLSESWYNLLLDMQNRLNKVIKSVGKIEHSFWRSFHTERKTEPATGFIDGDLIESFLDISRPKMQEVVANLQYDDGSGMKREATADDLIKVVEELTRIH

SMILES: O=C1CC[C@H](N2Cc3c(ccc4c3OCC43CCN(Cc4cnn(C[C@H]5C[C@@H]5c5ccccc5)c4)CC3)C2=O)C(=O)N1 [Compound A347, (S)-3-(6-oxo-1′-((1-(((1S,2S)-2-phenylcyclopropyl)methyl)-1H-pyrazol-4-yl)methyl)-6,8-dihydro-2H,7H-spiro[furo[2,3-e]isoindole-3,4′-piperidin]-7-yl)piperidine-2,6-dione]
Dmax: 60 to 80%

SMILES: O=C1CCC(N2Cc3c(ccc4c3OCC43CCN(Cc4cccc5c4CCCC5)CC3)C2=O)C(=O)N1 (centres unmarked) [Compound A208, 3-(6-oxo-1′-((5,6,7,8-tetrahydronaphthalen-1-yl)methyl)-6,8-dihydro-2H,7H-spiro[furo[2,3-e]isoindole-3,4′-piperidin]-7-yl)piperidine-2,6-dione]
DC50: < 50 nM
Dmax: 60 to 80%

SMILES: O=C1CCC(N2Cc3c(ccc4c3OCCC43CCN(Cc4ccc(Cl)cc4F)CC3)C2=O)C(=O)N1 (centres unmarked) [Compound A10, 3-(1-(4-chloro-2-fluorobenzyl)-7′-oxo-2′,3′,7′,9′-tetrahydro-8′H-spiro[piperidine-4,4′-pyrano[2,3-e]isoindol]-8′-yl)piperidine-2,6-dione]
DC50: > 500 nM
Dmax: < 40%

SMILES: O=C1CCC(N2Cc3c(ccc4c3OCC43CCN(Cc4ccc5nccn5c4)CC3)C2=O)C(=O)N1 (centres unmarked) [Compound A79]
DC50: > 500 nM
Dmax: < 40%

SMILES: O=C1CC[C@H](N2Cc3c(ccc4c3OCC43CCN(Cc4cccc(-c5cnn([C@H]6CCOC6)c5)c4)CC3)C2=O)C(=O)N1 [Compound A269, (S)-3-(6-oxo-1′-(3-(1-((S)-tetrahydrofuran-3-yl)-1H-pyrazol-4-yl)benzyl)-6,8-dihydro-2H,7H-spiro[furo[2,3-e]isoindole-3,4′-piperidin]-7-yl)piperidine-2,6-dione]
DC50: 50 to 200 nM
Dmax: 60 to 80%

SMILES: O=C1CCC(N2Cc3c(ccc4c3OCC43CCN(Cc4cccc5c4OCCO5)CC3)C2=O)C(=O)N1 (centres unmarked) [Compound A199, 3-(1′-((2,3-dihydrobenzo[b][1,4]dioxin-5-yl)methyl)-6-oxo-6,8-dihydro-2H,7H-spiro[furo[2,3-e]isoindole-3,4′-piperidin]-7-yl)piperidine-2,6-dione]
DC50: > 500 nM
Dmax: 60 to 80%

SMILES: CC(C)(C)c1cccc(CN2CCC3(CC2)COc2c3ccc3c2CN(C2CCC(=O)NC2=O)C3=O)c1 (centres unmarked) [Compound A88, 3-(1′-(3-(tert-butyl)benzyl)-6-oxo-6,8-dihydro-2H,7H-spiro[furo[2,3-e]isoindole-3,4′-piperidin]-7-yl)piperidine-2,6-dione]
DC50: > 500 nM
Dmax: < 40%

SMILES: O=C1CCC(N2Cc3c(ccc4c3OCC43CCN(Cc4ccc5cccnc5c4)CC3)C2=O)C(=O)N1 (centres unmarked) [Compound A64, 3-(6-oxo-1′-(quinolin-7-ylmethyl)-6,8-dihydro-2H,7H-spiro[furo[2,3-e]isoindole-3,4′-piperidin]-7-yl)piperidine-2,6-dione]
DC50: 50 to 200 nM
Dmax: 60 to 80%

SMILES: O=C1CCC(N2Cc3c(ccc4c3OCC43CCN(Cc4ccc5c(c4)NC(=O)CO5)CC3)C2=O)C(=O)N1 (centres unmarked) [Compound A153, 3-(6-oxo-1′-((3-oxo-3,4-dihydro-2H-benzo[b][1,4]oxazin-6-yl)methyl)-6,8-dihydro-2H,7H-spiro[furo[2,3-e]isoindole-3,4′-piperidin]-7-yl)piperidine-2,6-dione]
DC50: 50 to 200 nM
Dmax: 60 to 80%

SMILES: CN(C)S(=O)(=O)c1ccc(CN2CCC3(CC2)COc2c3ccc3c2CN(C2CCC(=O)NC2=O)C3=O)cc1 (centres unmarked) [Compound A210, 4-((7-(2,6-dioxopiperidin-3-yl)-6-oxo-7,8-dihydro-2H,6H-spiro[furo[2,3-e]isoindole-3,4′-piperidin]-1′-yl)methyl)-N,N-dimethylbenzenesulfonamide]
DC50: > 500 nM
Dmax: < 40%

SMILES: [2H]C([2H])([2H])n1ccc(-c2cccc(CN3CCC4(CC3)COc3c4ccc4c3CN([C@H]3CCC(=O)NC3=O)C4=O)c2)n1 [Compound A302, (S)-3-(1′-(3-(1-(methyl-d3)-1H-pyrazol-3-yl)benzyl)-6-oxo-6,8-dihydro-2H,7H-spiro[furo[2,3-e]isoindole-3,4′-piperidin]-7-yl)piperidine-2,6-dione]
DC50: < 50 nM
Dmax: 60 to 80%

SMILES: O=C1CCC(N2Cc3c(ccc4c3OCC43CCN(C[C@H]4C[C@H](Oc5ccc(F)cc5)C4)CC3)C2=O)C(=O)N1 (some centres unmarked) [Compound A351, 3-(1′-(((1r,3r)-3-(4-fluorophenoxy)cyclobutyl)methyl)-6-oxo-6,8-dihydro-2H,7H-spiro[furo[2,3-e]isoindole-3,4′-piperidin]-7-yl)piperidine-2,6-dione]
DC50: > 500 nM
Dmax: 40 to 60%

SMILES: O=C1CCC(N2Cc3c(ccc4c3OCC43CCN(Cc4cccc(Cl)c4)CC3)C2=O)C(=O)N1 (centres unmarked) [Compound A216, 3-(1′-(3-chlorobenzyl)-6-oxo-6,8-dihydro-2H,7H-spiro[furo[2,3-e]isoindole-3,4′-piperidin]-7-yl)piperidine-2,6-dione]
DC50: 50 to 200 nM
Dmax: 60 to 80%

SMILES: O=C1CCC(N2Cc3c(ccc4c3OCC43CCN(Cc4cccc(N5CCCC5)c4)CC3)C2=O)C(=O)N1 (centres unmarked) [Compound A96, 3-(6-oxo-1′-(3-(pyrrolidin-1-yl)benzyl)-6,8-dihydro-2H,7H-spiro[furo[2,3-e]isoindole-3,4′-piperidin]-7-yl)piperidine-2,6-dione]
DC50: 50 to 200 nM
Dmax: 60 to 80%

SMILES: CCOc1cccc(CN2CCC3(CC2)COc2c3ccc3c2CN(C2CCC(=O)NC2=O)C3=O)c1 (centres unmarked) [Compound A92, 3-(1′-(3-ethoxybenzyl)-6-oxo-6,8-dihydro-2H,7H-spiro[furo[2,3-e]isoindole-3,4′-piperidin]-7-yl)piperidine-2,6-dione]
DC50: 50 to 200 nM
Dmax: 40 to 60%

SMILES: O=C1CCC(N2Cc3c(ccc4c3OCC43CCN(Cc4cccc(Oc5ccccc5)c4)CC3)C2=O)C(=O)N1 (centres unmarked) [Compound A86, 3-(6-oxo-1′-(3-phenoxybenzyl)-6,8-dihydro-2H,7H-spiro[furo[2,3-e]isoindole-3,4′-piperidin]-7-yl)piperidine-2,6-dione]
DC50: > 500 nM
Dmax: 40 to 60%

SMILES: O=C1CCC(N2Cc3c(ccc4c3OCC43CCN(Cc4cccc5occc45)CC3)C2=O)C(=O)N1 (centres unmarked) [Compound A119, 3-(1′-(benzofuran-4-ylmethyl)-6-oxo-6,8-dihydro-2H,7H-spiro[furo[2,3-e]isoindole-3,4′-piperidin]-7-yl)piperidine-2,6-dione]
DC50: < 50 nM
Dmax: 60 to 80%

SMILES: O=C1CC[C@H](N2Cc3c(ccc4c3OCC43CCN(Cc4ccc5cn(C(F)F)nc5c4)CC3)C2=O)C(=O)N1 [Compound A288, (S)-3-(1′-((2-(difluoromethyl)-2H-indazol-6-yl)methyl)-6-oxo-6,8-dihydro-2H,7H-spiro[furo[2,3-e]isoindole-3,4′-piperidin]-7-yl)piperidine-2,6-dione]
DC50: < 50 nM
Dmax: 60 to 80%

SMILES: O=C1CCC(N2Cc3c(ccc4c3OCC43CCN(Cc4cccn5nccc45)CC3)C2=O)C(=O)N1 (centres unmarked) [Compound A58, 3-(6-oxo-1′-(pyrazolo[1,5-a]pyridin-4-ylmethyl)-6,8-dihydro-2H,7H-spiro[furo[2,3-e]isoindole-3,4′-piperidin]-7-yl)piperidine-2,6-dione]
DC50: > 500 nM
Dmax: 40 to 60%

SMILES: O=C1CCC(N2Cc3c(ccc4c3OCC43CCN(Cc4cnn(Cc5cccc(F)c5)c4)CC3)C2=O)C(=O)N1 (centres unmarked) [Compound A238, 3-(1′-((1-(3-fluorobenzyl)-1H-pyrazol-4-yl)methyl)-6-oxo-6,8-dihydro-2H,7H-spiro[furo[2,3-e]isoindole-3,4′-piperidin]-7-yl)piperidine-2,6-dione]
DC50: < 50 nM
Dmax: 60 to 80%

SMILES: O=C1CCC(N2Cc3c(ccc4c3OCC43CCN(Cc4cccc(-c5nccs5)c4)CC3)C2=O)C(=O)N1 (centres unmarked) [Compound A106, 3-(6-oxo-1′-(3-(thiazol-2-yl)benzyl)-6,8-dihydro-2H,7H-spiro[furo[2,3-e]isoindole-3,4′-piperidin]-7-yl)piperidine-2,6-dione]
DC50: < 50 nM
Dmax: 60 to 80%

DC50: < 50 nM
SMILES: O=C1CCC(N2Cc3c(ccc4c3OCC43CCN(Cc4cnn(S(=O)(=O)c5cccc(Cl)c5F)c4)CC3)C2=O)C(=O)N1 [Compound A357, (S)-3-(1′-((1-((3-chloro-2-fluorophenyl)sulfonyl)-1H-pyrazol-4-yl)methyl)-6-oxo-6,8-dihydro-2H,7H-spiro[furo[2,3-e]isoindole-3,4′-piperidin]-7-yl)piperidine-2,6-dione]

SMILES: Cn1cc2c(CN3CCC4(CC3)COc3c4ccc4c3CN(C3CCC(=O)NC3=O)C4=O)cccc2n1 (centres unmarked) [Compound A67, 3-(1′-((2-methyl-2H-indazol-4-yl)methyl)-6-oxo-6,8-dihydro-2H,7H-spiro[furo[2,3-e]isoindole-3,4′-piperidin]-7-yl)piperidine-2,6-dione]
DC50: 50 to 200 nM
Dmax: 60 to 80%

SMILES: O=C1CCC(N2Cc3c(ccc4c3OCC43CCN(Cc4cnn(Cc5cccc(Cl)c5)c4)CC3)C2=O)C(=O)N1 (centres unmarked) [Compound A242, 3-(1′-((1-(3-chlorobenzyl)-1H-pyrazol-4-yl)methyl)-6-oxo-6,8-dihydro-2H,7H-spiro[furo[2,3-e]isoindole-3,4′-piperidin]-7-yl) piperidine-2,6-dione]
DC50: < 50 nM
Dmax: 60 to 80%

SMILES: O=C1CCC(N2Cc3c(ccc4c3OCC43CCN(Cc4ccccc4OCc4ccccn4)CC3)C2=O)C(=O)N1 (centres unmarked) [Compound A157, 3-(6-oxo-1′-(2-(pyridin-2-ylmethoxy)benzyl)-6,8-dihydro-2H,7H-spiro[furo[2,3-e]isoindole-3,4′-piperidin]-7-yl)piperidine-2,6-dione]
DC50: < 50 nM
Dmax: 60 to 80%

SMILES: O=C1CCC(N2Cc3c(ccc4c3OCC43CCN(Cc4cnn(-c5ccccc5F)c4)CC3)C2=O)C(=O)N1 (centres unmarked) [Compound A310, 3-(1′-((1-(2-fluorophenyl)-1H-pyrazol-4-yl)methyl)-6-oxo-6,8-dihydro-2H,7H-spiro[furo[2,3-e]isoindole-3,4′-piperidin]-7-yl)piperidine-2,6-dione]
DC50: > 500 nM
Dmax: < 40%
